Where “and” joins values, the source holds several entries; their conditions need not be identical. Identical values can stand only once.
Key:
P388 = assay: Anti tumor activity expressed as median survival time of treated BDF1 mice bearing P388 leukemia cells versus untreated controls; type: functional, cell-based; conditions: Mus musculus
Mus musculus = assay: Maximum dose at which all tested BDF1 mice survived after 30 days of intraperitoneal dosage; type: functional
L1210 = assay: Compound was evaluated for its inhibitory dose against L1210 leukemia cell line; type: functional, cell-based; conditions: Mus musculus

## TRANSPLATIN
P388
  T/C: 116%
Mus musculus
  LD0: 167 µM/kg
L1210
  ID50: 67 µM

## CISPLATIN
P388
  T/C: 205%
Mus musculus
  LD0: 30 µM/kg
L1210
  ID50: 2.3 µM

## Cis-[PtCl2(gamma-pic)2] complex
P388
  T/C: 105% and 119%

— ChEMBL document CHEMBL1124651, “Cytostatic trans-platinum(II) complexes” (J Med Chem, 1989)
